Experimental data from US20070244110A1, “Treatment of prostate cancer, melanoma or hepatic cancer” (ZENYAKU KOGYO KABUSHIKI KAISHA, priority 2006, published 2007).

Experiments:
Hepatoma HepG2 cells = assay: In vitro anti-tumor experiment, growth inhibition of HepG2 cells; format: cell-based; settings: HepG2, 72 hours incubation
Description: (§1) Hepatoma HepG2 cells were cultured in a MEM culture medium (containing 10% fetal bovine serum, 25 mM HEPES and 0.1 mg/ml kanamycin) under conditions of 5% carbon dioxide at 37° C. HepG2 cells were harvested as single free cells by a tripsin/EDTA treatment in the logarithmic growth phase, and a cell suspension solution consisted of 2×10^4 cells per ml was prepared with MEM culture medium (containing 10% fetal bovine serum, 25 mM HEPES and 0.1 mg/ml kanamycin). The test compound was dissolved in DMSO, then diluted with RPMI1640 culture medium (containing 10% fetal bovine serum, 25 mM HEPES, 0.1 mg/ml kanamycin), and adjusted to a concentration of 2.0×10^−9 to 2.0×10^−3 M.
(§2) 0.1 ml of the cell suspension solution was put in each well of a 96-well plate, then cultured for 24 hours to make the cells adhere to the microplates, and 0.1 ml of the test compound was added in each well and incubated for 72 hours under conditions of 5% carbon dioxide at 37° C. The 50% growth inhibition concentration (GI50 value μM) was computed from the growth inhibition rates at various test sample concentrations, and the results are shown in Table 1.

[1] = tested on: PC-3 prostate cancer cells; assay: In vitro anti-tumor experiment, growth inhibition of PC-3 cells; format: cell-based; settings: PC-3, 72 hours incubation
Description: as §1, §2
(§3) When using cells other than HepG2 cells, the following culture media were used instead of the MEM culture medium, and the following single cell suspensions were prepared with the following media:
PC-3 prostate cancer cells:
F12K culture medium containing 10% fetal bovine serum, 2×10^4 cell suspension

B16F10 melanoma cells = assay: In vitro anti-tumor experiment, growth inhibition of B16F10 cells; format: cell-based; settings: B16F10, 72 hours incubation
Description: as §1, §2, §3
RPMI1640 culture medium containing 10% fetal bovine serum, 1×10^4 cell suspension

[2] = tested on: PC-3 prostate cancer cells; assay: In vivo anti-tumor experiment, PC-3 human tumor xenograft; parameters: species or system BALB/c nude mice; settings: 6 days a week for two weeks, day 14
Description: (§4) Human tumor xenografts were generated with PC-3 prostate cancer cells, and WiDr colon cancer cells, and were grown as subcutaneous tumors in mutant BALB/c nude mice. Each nude mouse was subcutaneously inoculated with a tumor fragment of 2 mm by 2 mm by 2 mm. When tumors reached a volume of 100-300 mm^3, animals were divided randomly into test groups of five mice (day 0). The samples were orally administered at a dosage of 100, 200 or 400 mg/kg once daily, 6 days a week for two weeks. The length (L) and width (W) of the subcutaneous tumor mass were measured by calipers in live mice, and the tumor volume (TV) was calculated as: TV=(L×W^2)/2. The tumor volume at day n was expressed as relative tumor volume (RTV), according to the formula RTV=TVn/TV0, where TVn is the tumor volume at day n, and TV0 is the tumor volume at day 0. T/C% on day 14 was determined by calculating RTV as: T/C%=100×(mean RTV of treated group)/(mean RTV of control group). The specimens in which T/C (%) was 50% or less and having a significant difference at P value 1% on one side in a Mann-Whitney U test were evaluated as effective (+).

WiDr colon cancer cells = assay: In vivo anti-tumor experiment, WiDr human tumor xenograft (reference); parameters: species or system BALB/c nude mice; settings: 6 days a week for two weeks, day 14
Description: as §4

Row | Compound | GI50 (Hepatoma HepG2 cells; Homo sapiens) [µM] | GI50 ([1]; Homo sapiens) [µM] | GI50 (B16F10 melanoma cells; Mus musculus, B16-F10) [µM] | T/C (%) Prostate Cancer ([2]; 200 mg/kg orally once daily) [%] | Evaluation effective (+), Prostate Cancer ([2]; 200 mg/kg orally once daily) | T/C (%) Colon Cancer (reference) (WiDr colon cancer cells; 200 mg/kg orally once daily) [%] | further results
1 | CC(=O)Oc1cccc2c1nc(C(F)F)n2-c1nc(N2CCOCC2)cc(N2C[C@@H](C)O[C@@H](C)C2)n1 [Compound 13, 2-(2-difluoromethyl-4-acetoxybenzimidazol-1-yl)-4-(cis-2,6-dimethylmoropholino)-6-morpholinopyrimidine] |  |  |  | 65.4 |  |  | 
2 | COc1cccc2c1nc(C(F)F)n2-c1nc(N2CCOCC2)cc(N2C[C@@H](C)O[C@@H](C)C2)n1 [Compound 6, 2-(2-difluoromethyl-4-methoxybenzimidazol-1-yl)-4-(cis-2,6-dimethylmorpholino)-6-moropholinopyrimidine] |  |  |  | 16.2 | + (T/C (%) was 50% or less and having a significant difference at P value 1% on one side in a Mann-Whitney U test were evaluated as effective (+)) | 29.5 | GI50 (Hepatoma HepG2 cells): 0.89 µM; GI50 [1]: 0.54 µM; GI50 (B16F10 melanoma cells): 1.21 µM; Evaluation effective (+), Prostate Cancer ([2]; 100 mg/kg orally once daily): + (T/C (%) was 50% or less and having a significant difference at P value 1% on one side in a Mann-Whitney U test were evaluated as effective (+)); T/C (%) Prostate Cancer ([2]; 100 mg/kg orally once daily): 32.3%; Evaluation effective (+), Colon Cancer (reference) (WiDr colon cancer cells; 100 mg/kg orally once daily): + (T/C (%) was 50% or less and having a significant difference at P value 1% on one side in a Mann-Whitney U test were evaluated as effective (+)); T/C (%) Colon Cancer (reference) (WiDr colon cancer cells; 100 mg/kg orally once daily): 24.8%; Evaluation effective (+), Colon Cancer (reference) (WiDr colon cancer cells; 200 mg/kg orally once daily): + (T/C (%) was 50% or less and having a significant difference at P value 1% on one side in a Mann-Whitney U test were evaluated as effective (+))
3 | CC1(C)COCCN1c1cc(N2CCOCC2)nc(-n2c(C(F)F)nc3c(O)cccc32)n1 [Compound 10, 2-(2-difluoromethyl-4-hydroxybenzimidazol-1-yl)-4-(3,3-dimethylmoropholino)-6-morpholinopyrimidine] |  |  |  | 38.1 | + (T/C (%) was 50% or less and having a significant difference at P value 1% on one side in a Mann-Whitney U test were evaluated as effective (+)) | 46.2 | GI50 (Hepatoma HepG2 cells): 0.09 µM; GI50 [1]: 0.02 µM; GI50 (B16F10 melanoma cells): 0.042 µM; Evaluation effective (+), Prostate Cancer ([2]; 400 mg/kg orally once daily): + (T/C (%) was 50% or less and having a significant difference at P value 1% on one side in a Mann-Whitney U test were evaluated as effective (+)); T/C (%) Prostate Cancer ([2]; 400 mg/kg orally once daily): 20.8%; Evaluation effective (+), Colon Cancer (reference) (WiDr colon cancer cells; 200 mg/kg orally once daily): + (T/C (%) was 50% or less and having a significant difference at P value 1% on one side in a Mann-Whitney U test were evaluated as effective (+)); T/C (%) Colon Cancer (reference) (WiDr colon cancer cells; 400 mg/kg orally once daily): 63.1%
4 | C[C@@H]1CN(c2nc(N3CCOCC3)nc(-n3c(C(F)F)nc4c(O)cccc43)n2)C[C@H](C)O1 [Compound 11, 2-(2-difluoromethyl-4-hydroxybenzimidazol-1-yl)-4-(cis-2,6-dimethylmorpholino)-6-morpholino-1,3,5-triazine] |  |  |  | 66.5 |  | 85.4 | Evaluation effective (+), Prostate Cancer ([2]; 400 mg/kg orally once daily): + (T/C (%) was 50% or less and having a significant difference at P value 1% on one side in a Mann-Whitney U test were evaluated as effective (+)); T/C (%) Prostate Cancer ([2]; 400 mg/kg orally once daily): 44.3%; T/C (%) Colon Cancer (reference) (WiDr colon cancer cells; 400 mg/kg orally once daily): 83.5%; melting point: 214 to 215 °C
5 | COC(=O)Oc1cccc2c1nc(C(F)F)n2-c1nc(N2CCOCC2)cc(N2CCOC(C)(C)C2)n1 [Compound 14, 2-(2-difluoromethyl-4-methoxycarbonyloxybenzimidazol-1-yl)-4-(2,2-dimethyl-moropholino)-6-morpholinopyrimidine] |  |  |  | 47.3 | + (T/C (%) was 50% or less and having a significant difference at P value 1% on one side in a Mann-Whitney U test were evaluated as effective (+)) |  | 
6 | CCOC(=O)Oc1cccc2c1nc(C(F)F)n2-c1nc(N2CCOCC2)cc(N2C[C@@H](C)O[C@@H](C)C2)n1 [Compound 15, 2-(4-ethoxycarbonyloxy-2-difluoromethylbenzimidazol-1-yl)-4-(cis-2,6-dimethyl-moropholino)-6-morpholinopyrimidine] |  |  |  | 47.5 | + (T/C (%) was 50% or less and having a significant difference at P value 1% on one side in a Mann-Whitney U test were evaluated as effective (+)) |  | 
7 | COc1cccc2c1nc(C(F)F)n2-c1nc(N2CCOCC2)cc(N2CCOC(C)(C)C2)n1 [Compound 5, 2-(2-difluoromethyl-4-methoxybenzimidazol-1-yl)-4-(2,2-dimethylmorpholino)-6-morpholinopyrimidine] |  |  |  | 39.1 | + (T/C (%) was 50% or less and having a significant difference at P value 1% on one side in a Mann-Whitney U test were evaluated as effective (+)) |  | Evaluation effective (+), Colon Cancer (reference) (WiDr colon cancer cells; 100 mg/kg orally once daily): + (T/C (%) was 50% or less and having a significant difference at P value 1% on one side in a Mann-Whitney U test were evaluated as effective (+)); melting point: 160 to 162 °C

Now from value to molecule, other results behind:

Row | GI50 (Hepatoma HepG2 cells; Homo sapiens) [µM] | GI50 ([1]; Homo sapiens) [µM] | GI50 (B16F10 melanoma cells; Mus musculus, B16-F10) [µM] | Compound | T/C (%) Prostate Cancer ([2]; 200 mg/kg orally once daily) [%] | Evaluation effective (+), Prostate Cancer ([2]; 200 mg/kg orally once daily) | T/C (%) Colon Cancer (reference) (WiDr colon cancer cells; 200 mg/kg orally once daily) [%] | further results
8 | 1.15 | 0.24 | 0.31 | FC(F)c1nc2ccccc2n1-c1nc(N2CCOCC2)nc(N2CCOCC2)n1 [Compound 1, 2-(2-difluoromethylbenzimidazol-1-yl)-4,6-dimorpholino-1,3,5-triazine] |  |  |  | Evaluation effective (+), Prostate Cancer ([2]; 400 mg/kg orally once daily): + (T/C (%) was 50% or less and having a significant difference at P value 1% on one side in a Mann-Whitney U test were evaluated as effective (+)); T/C (%) Prostate Cancer ([2]; 400 mg/kg orally once daily): 24.8%; Evaluation effective (+), Colon Cancer (reference) (WiDr colon cancer cells; 400 mg/kg orally once daily): + (T/C (%) was 50% or less and having a significant difference at P value 1% on one side in a Mann-Whitney U test were evaluated as effective (+)); T/C (%) Colon Cancer (reference) (WiDr colon cancer cells; 400 mg/kg orally once daily): 33.2%
9 | 0.15 | 0.02 | 0.063 | OCC1CCCN1c1nc(N2CCOCC2)nc(-n2c(C(F)F)nc3c(O)cccc32)n1 (centres unmarked) [Compound 9, 2-(2-difluoromethyl-4-hydroxybenzimidazol-1-yl)-4-(2-hydroxymethylpyrrolidin-1-yl)-6-morpholino-1,3,5-triazine] | 31.8 | + (T/C (%) was 50% or less and having a significant difference at P value 1% on one side in a Mann-Whitney U test were evaluated as effective (+)) | 49.6 | Evaluation effective (+), Colon Cancer (reference) (WiDr colon cancer cells; 200 mg/kg orally once daily): + (T/C (%) was 50% or less and having a significant difference at P value 1% on one side in a Mann-Whitney U test were evaluated as effective (+))
10 | 0.34 | 0.19 | 0.25 | COc1cccc2c1nc(C(F)F)n2-c1nc(N2CCOCC2)nc(N2CCOCC2)n1 [Compound 4, 2-(2-difluoromethyl-4-methoxybenzimidazol-1-yl)-4,6-dimorpholino-1,3,5-triazine] |  |  |  | 
11 | 0.12 | 0.01 | 0.018 | Oc1cccc2c1nc(C(F)F)n2-c1nc(N2CCOCC2)nc(N2CCOCC2)n1 [Compound 8, 2-(2-difluoromethyl-4-hydroxybenzimidazol-1-yl)-4,6-dimorpholino-1,3,5-triazine] |  |  |  | 
